{"source": "patent US8399378B2", "about": "“Use of neonicotinoids in pest control” (Syngenta Crop Protection LLC, priority 1998, dated 2013)", "format_in_all_cases": "in vivo", "key": {"Heliothis virescens [1]": {"tested_on": "Heliothis virescens", "assay": "Spray test on young cotton plants, action against Heliothis virescens larvae", "conditions": "spray 100, 50, 10, 5, 1 ppm, evaluation 3 to 10 days", "source_text": "(§1) Young transgenic cotton plants which express the δ-endotoxin CryIIIA are sprayed with an aqueous emulsion spray mixture comprising 100, 50, 10, 5, 1 ppm of imidacloprid respectively. After the spray coating has dried on, the cotton plants are populated with 10 adult Anthonomus grandis, 10 Spodoptera littoralis larvae or 10 Heliothis virescens larvae respectively and introduced into a plastic container. Evaluation takes place 3 to 10 days later.\n(§2) Young transgenic cotton plants which express the δ-endotoxin CryIIIA are sprayed with an aqueous emulsion spray mixture comprising 100, 50, 10, 5, 1 ppm of thiamethoxam respectively. After the spray coating has dried on, the cotton plants are populated with 10 adult Anthonomus grandis, 10 Spodoptera littoralis larvae or 10 Heliothis virescens larvae respectively and introduced into a plastic container. Evaluation takes place 3 to 10 days later.\nYoung transgenic cotton plants which express the δ-endotoxin CryIIIA are sprayed with an aqueous emulsion spray mixture comprising 100, 50, 10, 5, 1 ppm of Ti-435 respectively. After the spray coating has dried on, the cotton plants are populated with 10 adult Anthonomus grandis, 10 Spodoptera littoralis larvae or 10 Heliothis virescens larvae respectively and introduced into a plastic container. Evaluation takes place 3 to 10 days later. […]"}, "Ostrinia nubilalis": {"tested_on": "Ostrinia nubilalis", "assay": "Maize plot spray test (KnockOut vs conventional maize), action against Ostrinia nubilalis", "conditions": "6 days; for control (percentage reduction in population, % action): plot (a) maize cv. KnockOut, spray 200, 100, 50, 10, 5, 1 ppm, natural infestation; for control level: plot (b) conventional maize, compound 200, 100, 50, 10, 5, 1 ppm, then same ppm of the endotoxin expressed by KnockOut", "protocol": "(§3) A plot (a) planted with maize cv. KnockOut® and an adjacent plot (b) of the same size which is planted with conventional maize, both showing natural infestation with Ostrinia nubilalis, Spodoptera spp. or Heliothis, are sprayed with an aqueous emulsion spray mixture comprising 200, 100, 50, 10, 5, 1 ppm of Ti-435. Immediately afterwards, plot (b) is treated with an emulsion spray mixture comprising 200, 100, 50, 10, 5, 1 ppm of the endotoxin expressed by KnockOut®. Evaluation takes place 6 days later. The percentage reduction in population (% action) is determined by comparing the number of dead pests on the plants of plot (a) with that on the plants of plot (b).\nas §3, with “thiamethoxam.” for “Ti-435.”\nas §3, with “imidacloprid.” for “Ti-435.”"}, "Anthonomus grandis [2]": {"tested_on": "Anthonomus grandis", "assay": "Spray test on young cotton plants, action against Anthonomus grandis adults", "conditions": "spray 100, 50, 10, 5, 1 ppm, evaluation 3 to 10 days", "source_text": "as §1, §2\n(§4) Young transgenic cotton plants which express the δ-endotoxin CryIIIA are sprayed with an aqueous emulsion spray mixture comprising 100, 50, 10, 5, 1 ppm of Ti-435 respectively. After the spray coating has dried on, the cotton plants are populated with 10 adult Anthonomus grandis, 10 Spodoptera littoralis larvae or 10 Heliothis virescens larvae respectively and introduced into a plastic container. Evaluation takes place 3 to 10 days later.\n(§5) Young transgenic cotton plants which express the δ-endotoxin CryIa(c) are sprayed with an aqueous emulsion spray mixture comprising 100, 50, 10, 5, 1 ppm of Ti-435 respectively. After the spray coating has dried on, the cotton plants are populated with 10 adult Anthonomus grandis, 10 Spodoptera littoralis larvae or 10 Heliothis virescens larvae respectively and introduced into a plastic container. Evaluation takes place 3 to 10 days later.\n(§6) Young transgenic cotton plants which express the δ-endotoxin CryIa(c) are sprayed with an aqueous emulsion spray mixture comprising 100, 50, 10, 5, 1 ppm of thiamethoxam respectively. After the spray coating has dried on, the cotton plants are populated with 10 adult Anthonomus grandis, 10 Spodoptera littoralis larvae or 10 Heliothis virescens larvae respectively and introduced into a plastic container. Evaluation takes place 3 to 10 days later.\n(§7) Young transgenic cotton plants which express the δ-endotoxin CryIa(c) are sprayed with an aqueous emulsion spray mixture comprising 100, 50, 10, 5, 1 ppm of imidacloprid respectively. After the spray coating has dried on, the cotton plants are populated with 10 adult Anthonomus grandis, 10 Spodoptera littoralis larvae or 10 Heliothis virescens larvae respectively and introduced into a plastic container. Evaluation takes place 3 to 10 days later."}, "Spodoptera littoralis [3]": {"tested_on": "Spodoptera littoralis", "assay": "Spray test on young cotton plants, action against Spodoptera littoralis larvae", "source_text": "as §1, §2, §4, §5, §6, §7"}, "Heliothis spp.": {"tested_on": "Heliothis spp.", "assay": "Maize plot spray test (KnockOut vs conventional maize), action against Heliothis spp.", "conditions": "6 days; for control (percentage reduction in population, % action): plot (a) maize cv. KnockOut, spray 200, 100, 50, 10, 5, 1 ppm, natural infestation; for control level: plot (b) conventional maize, compound 200, 100, 50, 10, 5, 1 ppm, then same ppm of the endotoxin expressed by KnockOut", "protocol": "as §3\nas §3, with “thiamethoxam.” for “Ti-435.”\nas §3, with “imidacloprid.” for “Ti-435.”"}, "Spodoptera littoralis [4]": {"tested_on": "Spodoptera littoralis", "assay": "Spray test on young cotton plants, action against Spodoptera littoralis larvae", "remark": "listed apart in the source"}, "Spodoptera spp.": {"tested_on": "Spodoptera spp.", "assay": "Maize plot spray test (KnockOut vs conventional maize), action against Spodoptera spp.", "conditions": "6 days; for control (percentage reduction in population, % action): plot (a) maize cv. KnockOut, spray 200, 100, 50, 10, 5, 1 ppm, natural infestation; for control level: plot (b) conventional maize, compound 200, 100, 50, 10, 5, 1 ppm, then same ppm of the endotoxin expressed by KnockOut", "protocol": "as §3\nas §3, with “thiamethoxam.” for “Ti-435.”\nas §3, with “imidacloprid.” for “Ti-435.”"}, "Heliothis virescens [5]": {"tested_on": "Heliothis virescens", "assay": "Spray test on young cotton plants, action against Heliothis virescens larvae", "conditions": "non-transgenic cotton treated with compound and conventional CryIIIA-toxin, each 100, 50, 10, 5, 1 ppm"}, "Anthonomus grandis [6]": {"tested_on": "Anthonomus grandis", "assay": "Spray test on young cotton plants, action against Anthonomus grandis adults", "conditions": "non-transgenic cotton treated with compound and conventional CryIIIA-toxin, each 100, 50, 10, 5, 1 ppm"}, "[7]": {"conditions": "transgenic cotton expressing δ-endotoxin CryIIIA, compared with non-transgenic plant"}, "[8]": {"conditions": "transgenic cotton expressing δ-endotoxin CryIa(c)"}, "[9]": {"conditions": "non-transgenic cotton treated with compound and conventional CryIIIA-toxin, each 100, 50, 10, 5, 1 ppm, comparison arm for CryIa(c) cotton"}, "[10]": {"conditions": "transgenic cotton expressing δ-endotoxin CryIa(c), spray 100, 50, 10, 5, 1 ppm, evaluation 3 to 10 days"}, "[11]": {"conditions": "transgenic cotton expressing δ-endotoxin CryIIIA, spray 100, 50, 10, 5, 1 ppm, evaluation 3 to 10 days, compared with non-transgenic plant"}, "[12]": {"conditions": "comparison arm for CryIIIA cotton"}, "[13]": {"conditions": "comparison arm for CryIa(c) cotton"}}}
{"molecule": "CN/C(=N\\[N+](=O)[O-])NCc1cnc(Cl)s1", "note": "[Ti-435]", "values": [{"measurement": "control of the tested insects (percentage reduction in population or feeding damage, % action)", "setting": "Heliothis virescens [1]; [7]", "value": "superior"}, {"measurement": "control of the tested insects (percentage reduction in population or feeding damage, % action)", "setting": "Heliothis virescens [1]; [8]", "value": "superior"}, {"measurement": "control (percentage reduction in population, % action)", "setting": "Ostrinia nubilalis", "value": "Improved control"}, {"measurement": "control level", "setting": "Ostrinia nubilalis", "value": "≤ 60", "unit": "%"}, {"measurement": "control of the tested insects (percentage reduction in population or feeding damage, % action)", "setting": "Anthonomus grandis [2]; [7]", "value": "superior"}, {"measurement": "control of the tested insects (percentage reduction in population or feeding damage, % action)", "setting": "Anthonomus grandis [2]; [8]", "value": "superior"}, {"measurement": "control of the tested insects (percentage reduction in population or feeding damage, % action)", "setting": "Spodoptera littoralis [3]; [9]", "value": "insufficient"}, {"measurement": "control of the tested insects (percentage reduction in population or feeding damage, % action)", "setting": "Spodoptera littoralis [3]; [10]", "value": "superior"}, {"measurement": "control (percentage reduction in population, % action)", "setting": "Heliothis spp.", "value": "Improved control"}, {"measurement": "control level", "setting": "Heliothis spp.", "value": "≤ 60", "unit": "%"}, {"measurement": "control of the tested insects (percentage reduction in population or feeding damage, % action)", "setting": "Spodoptera littoralis [4]; non-transgenic cotton treated with compound and conventional CryIIIA-toxin, each 100, 50, 10, 5, 1 ppm, comparison arm for CryIIIA cotton", "value": "insufficient"}, {"measurement": "control of the tested insects (percentage reduction in population or feeding damage, % action)", "setting": "Spodoptera littoralis [4]; [11]", "value": "superior"}, {"measurement": "control (percentage reduction in population, % action)", "setting": "Spodoptera spp.", "value": "Improved control"}, {"measurement": "control level", "setting": "Spodoptera spp.", "value": "≤ 60", "unit": "%"}, {"measurement": "control of the tested insects (percentage reduction in population or feeding damage, % action)", "setting": "Heliothis virescens [5]; [12]", "value": "insufficient"}, {"measurement": "control of the tested insects (percentage reduction in population or feeding damage, % action)", "setting": "Heliothis virescens [5]; [13]", "value": "insufficient"}, {"measurement": "control of the tested insects (percentage reduction in population or feeding damage, % action)", "setting": "Anthonomus grandis [6]; [12]", "value": "insufficient"}, {"measurement": "control of the tested insects (percentage reduction in population or feeding damage, % action)", "setting": "Anthonomus grandis [6]; [13]", "value": "insufficient"}]}
{"molecule": "O=[N+]([O-])/N=C1\\NCCN1Cc1ccc(Cl)nc1", "note": "[imidacloprid]", "values": [{"measurement": "control of the tested insects (percentage reduction in population or feeding damage, % action)", "setting": "Heliothis virescens [1]; [7]", "value": "superior"}, {"measurement": "control of the tested insects (percentage reduction in population or feeding damage, % action)", "setting": "Heliothis virescens [1]; [8]", "value": "superior"}, {"measurement": "control (percentage reduction in population, % action)", "setting": "Ostrinia nubilalis", "value": "Improved control"}, {"measurement": "control level", "setting": "Ostrinia nubilalis", "value": "≤ 60", "unit": "%"}, {"measurement": "control of the tested insects (percentage reduction in population or feeding damage, % action)", "setting": "Anthonomus grandis [2]; [7]", "value": "superior"}, {"measurement": "control of the tested insects (percentage reduction in population or feeding damage, % action)", "setting": "Anthonomus grandis [2]; [8]", "value": "superior"}, {"measurement": "control of the tested insects (percentage reduction in population or feeding damage, % action)", "setting": "Spodoptera littoralis [3]; [9]", "value": "insufficient"}, {"measurement": "control of the tested insects (percentage reduction in population or feeding damage, % action)", "setting": "Spodoptera littoralis [3]; [10]", "value": "superior"}, {"measurement": "control (percentage reduction in population, % action)", "setting": "Heliothis spp.", "value": "Improved control"}, {"measurement": "control level", "setting": "Heliothis spp.", "value": "≤ 60", "unit": "%"}, {"measurement": "control of the tested insects (percentage reduction in population or feeding damage, % action)", "setting": "Spodoptera littoralis [4]; [11]", "value": "superior"}, {"measurement": "control (percentage reduction in population, % action)", "setting": "Spodoptera spp.", "value": "Improved control"}, {"measurement": "control level", "setting": "Spodoptera spp.", "value": "≤ 60", "unit": "%"}, {"measurement": "control of the tested insects (percentage reduction in population or feeding damage, % action)", "setting": "Heliothis virescens [5]; [13]", "value": "insufficient"}, {"measurement": "control of the tested insects (percentage reduction in population or feeding damage, % action)", "setting": "Anthonomus grandis [6]; [13]", "value": "insufficient"}]}
